Data: PMC4769596 (Biochemical pharmacology, 2014)
Read-outs that look alike come from different tables or passages of the source.

Key:
[1] = molecular target: μOR (spinal cord membranes from WT mice) (Mus musculus, UniProt P42866); assay: [35S]GTPγS binding, spinal cord membranes from WT mice; format: biochemical; conditions: spinal cord membranes (10 μg); for Emax (% basal), [35S]GTPγS binding: basal = 100%
[2] = molecular target: μOR (spinal cord membranes from δOR−/− mice) (Mus musculus, UniProt P42866); assay: [35S]GTPγS binding, spinal cord membranes from δOR−/− mice; format: biochemical; conditions: spinal cord membranes (10 μg), basal = 100%
Chain of μOR (spinal cord membranes from δOR−/− mice) (P42866 whole entry): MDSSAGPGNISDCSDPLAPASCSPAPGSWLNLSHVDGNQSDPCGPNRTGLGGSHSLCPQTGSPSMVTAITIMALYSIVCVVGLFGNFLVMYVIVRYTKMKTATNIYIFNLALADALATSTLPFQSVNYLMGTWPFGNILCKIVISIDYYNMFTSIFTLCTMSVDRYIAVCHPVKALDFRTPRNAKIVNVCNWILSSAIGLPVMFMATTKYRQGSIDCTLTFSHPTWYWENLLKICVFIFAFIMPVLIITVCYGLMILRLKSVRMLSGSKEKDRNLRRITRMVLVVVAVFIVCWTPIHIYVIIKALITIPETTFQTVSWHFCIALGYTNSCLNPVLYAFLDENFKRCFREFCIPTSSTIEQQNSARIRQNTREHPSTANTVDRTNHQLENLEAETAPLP

[3] = tested on: spinal cord membranes from μOR−/− mice; assay: [35S]GTPγS binding, spinal cord membranes from μOR−/− mice; format: biochemical
antinociception = conditions: cited from earlier work
[4] = molecular target: μOR (membranes from the ileum of WT mice) (Mus musculus, UniProt P42866); assay: [35S]GTPγS binding, ileal membranes from WT mice; format: biochemical; conditions: 10 μM (Fig. 1G)
Chain of μOR (membranes from the ileum of WT mice) (P42866 whole entry): as above

[5] = molecular target: μOR homomers (μ^βgalOR cells) (Homo sapiens, UniProt P35372); format: cell-based
Chain of μOR homomers (μ^βgalOR cells) (P35372 whole entry): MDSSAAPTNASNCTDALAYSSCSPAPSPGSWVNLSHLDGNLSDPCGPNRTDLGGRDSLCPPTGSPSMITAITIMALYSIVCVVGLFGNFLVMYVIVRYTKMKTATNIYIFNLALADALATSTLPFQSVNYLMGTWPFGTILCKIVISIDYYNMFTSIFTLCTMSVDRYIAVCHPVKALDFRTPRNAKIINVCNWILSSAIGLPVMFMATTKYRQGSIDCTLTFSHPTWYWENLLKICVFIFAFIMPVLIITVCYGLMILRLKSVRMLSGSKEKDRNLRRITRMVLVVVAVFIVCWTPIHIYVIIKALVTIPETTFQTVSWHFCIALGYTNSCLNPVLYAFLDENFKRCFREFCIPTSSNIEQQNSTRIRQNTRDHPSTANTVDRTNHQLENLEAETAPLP

[6] = tested on: castor oil-induced diarrhea in WT mice; format: in vivo; conditions: for effect on body weight change in presence of naltrexone: WT and δOR−/− mice; for reduction in castor oil-induced diarrhea after naltrexone pre-treatment: 10 mg/kg p.o., naltrexone 10 mg/kg i.p. 20 min before; for castor oil-induced diarrhea (diarrhea score): 5 or 10 mg/kg p.o. 15 min before castor oil; for castor oil-induced diarrhea (diarrhea score) / castor oil induced fecal output (fecal weight): 4 h; for castor oil induced fecal output (fecal weight) / castor oil-induced decrease in body weight: 5 or 10 mg/kg p.o.
[7] = tested on: castor oil-induced diarrhea in δOR−/− mice; assay: Castor oil-induced diarrhea in δOR−/− mice; format: in vivo; conditions: for castor oil induced fecal output (fecal weight): 4 h; for castor oil-induced decrease in body weight: 5 or 10 mg/kg p.o., 4 h after castor oil
[8] = molecular target: μOR-δOR heteromers (μ^βgalOR-δOR cells) (Homo sapiens, UniProt P35372+P41143)
Chain of μOR-δOR heteromers (μ^βgalOR-δOR cells) (P35372 whole entry): as above
Chain of μOR-δOR heteromers (μ^βgalOR-δOR cells) (P41143 whole entry): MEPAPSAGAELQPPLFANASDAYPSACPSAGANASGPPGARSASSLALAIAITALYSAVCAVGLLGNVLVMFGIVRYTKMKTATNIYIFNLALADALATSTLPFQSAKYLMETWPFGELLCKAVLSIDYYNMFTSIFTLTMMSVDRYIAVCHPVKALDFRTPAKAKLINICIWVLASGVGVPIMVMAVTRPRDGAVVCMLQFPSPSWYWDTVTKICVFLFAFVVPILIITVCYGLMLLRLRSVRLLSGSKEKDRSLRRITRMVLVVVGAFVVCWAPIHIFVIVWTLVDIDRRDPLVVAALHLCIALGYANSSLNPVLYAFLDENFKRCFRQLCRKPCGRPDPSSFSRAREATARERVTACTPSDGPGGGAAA

[9] = tested on: novel-environment stressed mice; conditions: doses of 5–25 mg/kg; cited from earlier work
[10] = Chronic treatment, body weight; conditions: 10 mg/kg/day p.o. for 5 days

Chain of μOR (spinal cord membranes from WT mice) (P42866 whole entry): as the sequence (P42866 whole entry) above

| Structure (SMILES) | Emax (% basal), [35S]GTPγS binding [1] | Emax (% basal), [35S]GTPγS binding [2] | increase of [35S]GTPγS binding [3] | effect on body weight change in presence of naltrexone ([6]; naltrexone 10 mg/kg i.p.) | reduction in castor oil-induced diarrhea after naltrexone pre-treatment ([6]; WT mice) | castor oil-induced diarrhea (diarrhea score) ([6]; WT mice) | castor oil induced fecal output (fecal weight) ([6]; WT mice) | castor oil-induced decrease in body weight ([6]; WT mice, 4 h after castor oil) | castor oil-induced diarrhea (diarrhea score) ([7]; 5 mg/kg p.o.) | castor oil induced fecal output (fecal weight) ([7]; 5 mg/kg p.o.) | castor oil-induced diarrhea (diarrhea score) ([7]; 10 mg/kg p.o.) | castor oil-induced decrease in body weight [7] | changes in body weight [10] | also measured |
| --- | --- | --- | --- | --- | --- | --- | --- | --- | --- | --- | --- | --- | --- | --- |
| C[C@@H](NC(=O)[C@@H](N)Cc1ccc(O)cc1)C(=O)NCC(=O)N(C)[C@@H](Cc1ccccc1)C(=O)NCCO [DAMGO, [D-Ala^2, N-MePhe^4, Gly-ol]-enkephalin] | ~ 143 % basal | ~ 147 % basal | did not increase |  |  |  |  |  |  |  |  |  |  |  |
| CN1CC[C@]23c4c5ccc(O)c4O[C@H]2[C@H](NC(=O)COCC(=O)NCCCCCCCNC(=O)COCC(=O)Nc2cccc4c6c([nH]c24)[C@@H]2Oc4c(O)ccc7c4[C@@]24CCN(CC2CC2)[C@@H](C7)[C@]4(O)C6)CC[C@@]3(O)[C@H]1C5 [MDAN21] |  |  |  |  |  |  |  |  |  |  |  |  |  | antinociceptive potency compared to morphine (antinociception): 100 times |
| COc1ccc(CN(C(=O)[C@@H](N)Cc2c(C)cc(C(N)=O)cc2C)[C@@H](C)c2ncc(-c3ccccc3)[nH]2)cc1C(=O)O [eluxadoline] | ~ 120 % basal | ~ 143 % basal | did not increase | partly blocked | not observed | reduced | significantly reduces | blocked | did not significantly reduce | significantly decreased | partially eliminate | blocked | did not lead to significant changes | EC50 ([1]; EC50, [35S]GTPγS binding): ~7 nM; increase in [35S]GTPγS binding compared to DAMGO or loperamide [4]: higher increase; block of β-arrestin recruitment by μOR-selective antibodies [5]: ~ 40%; fecal output versus vehicle control (constipation) ([6]; WT mice, 5 mg/kg, 4 h after castor oil): slightly reduced fecal output to below the vehicle control; effect on fecal output with coadministration of naltrexone ([6]; WT mice, naltrexone 10 mg/kg i.p.): blocked; effect on castor oil-induced body weight change compared to WT mice ([7]; 5 mg/kg): less effective; block of β-arrestin recruitment by μOR-selective antibodies [8]: ~ 17%; block of β-arrestin recruitment by μOR-δOR heteromer-selective antibodies [8]: 27%; constipation [9]: did not cause constipation |
| CN(C)C(=O)C(CCN1CCC(O)(c2ccc(Cl)cc2)CC1)(c1ccccc1)c1ccccc1 [loperamide] |  |  | did not increase | partly blocked | not observed | reduced | significantly reduces | blocked | did not significantly reduce | significantly decreased | completely eliminate | blocked | did not lead to significant changes | effect on fecal output with coadministration of naltrexone ([6]; mouse, in vivo): blocked |
